From patent US20230390406A1, “Star Polymer Drug Conjugates” (Vaccitech North America, Inc., priority 2020, published 2023)
Where a SMILES comes first, the peptide text is derived from it.

Key:
mouse plasma enzymes = test: Stability of AMC-peptides in mouse plasma (HPLC, 350 nm); format: in vitro ADME; conditions: up to 6 hrs
Procedure: Peptide linker stock solutions (10 mM in DMSO) are diluted to 1 mM and then incubated with mouse plasma; aliquots are removed, blood proteins are precipitated with cold acetonitrile, pelleted with centrifugation, and the supernatant analyzed by HPLC.
(§1) A series of peptide-based small molecules were screened in vitro to characterize their lability in human cathepsin B and mouse plasma enzymes. The screening protocol was adapted from literatures^1,2 and is shown below in FIGS. 31 and 32. In short, a small library of peptides conjugated to 7-amino-4-methylcoumarin (AMC-peptides) were synthesized by standard solid-phase peptide synthesis (SPPS) by Genscript (Piscataway, NJ), as summarized in the Table 18. They were first dissolved in DMSO as 10 mM stock solution and then incubated in the presence of PBS buffer (Gibco, 10010-031), cathepsin B (Sino Biological, protein human recombinant), and mouse plasma (BioIVT, C57BL/6 li-hep pooled, female). Substrates of either cathepsin B or plasma enzymes (and not PBS) afforded cleavage of the peptide-AMC bond. The resultant free AMC elutes at a different time from the parent AMC-conjugated peptides on the HPLC, thereby the linker degradation was monitored and quantified over time (i.e., 5 min, 1 hr and 6 hrs). PBS buffer solution was used as the matrix for the negative control. Cleavage of cathepsin B substrate Ill (Millipore Sigma, 219392) served as the positive control.
(§2) The stability of the analyte peptide was determined by the comparing the area-under-curve (AUC) of analyte peaks at 350 nm following formula: […]

human cathepsin B = target: T1, human cathepsin B (Homo sapiens, UniProt P07858); test: Cleavage of AMC-peptides by cathepsin B (HPLC, 350 nm); format: biochemical; conditions: pH 5, 37° C., up to 6 hrs
T1 construct: purchased Sino Biological
Procedure: as §1, §2

[1] = Turbidity (OD 490 nm) / solubility in PBS buffer at different pH; format: physicochemical
[2] = Particle / hydrodynamic size (Rh, Dh) by dynamic light scattering; format: physicochemical
Procedure: Samples were suspended at 0.5 mg/mL in PBS pH 7.4 and particle size was determined using dynamic light scattering (Malvern ZetaSizer Ultra).

CT26 tumors = test: CT26 tumor model, single intratumoral injection of 35 nmol STINGa; format: in vivo, BALB/c mice; conditions: 35 nmol STINGa IT, versus vehicle or free STINGa
Procedure: Tumor size was measured by digital calipers (FIG. 11B) and survival (FIG. 11C) were assessed up to 80 days after tumor implantation.
To assess the impact of linkage on efficacy in vivo, select compositions were tested in tumor-bearing mice (FIG. 11). The study design is shown in (FIG. 11A). BALB/c mice were implanted subcutaneously with 10^5 cells of the syngeneic tumor line CT26 on day 0. Tumors were allowed to grow until all mice in the study had palpable tumors. On day 12, mice were treated with a single intratumoral (IT) injection of 35 nmol of the STINGa as either (i) Compound 56 (amide linkage); (ii) Compound 94 hydrazone (Hz) linkage; or (iii) the free STINGa. An additional group of mice was treated with the formulation vehicle (7% DMSO in PBS) as a negative control. Tumors were measured biweekly to track tumor growth after treatment.

[3] = system: Interferon-gamma-induced protein 10 (IP-10); test: Serum IP-10 (ELISA) 4 hours after intratumoral injection (tolerability); format: in vivo, C57BL/6 mice; conditions: 4 hours after 7 nmol IT
Procedure: (§3) Tumor size was measured by digital calipers for up to 30 days after tumor implantation (FIG. 12 B & C). To assess acute toxicity, mice were bled 4 hours after treatment, and blood IP-10 concentration was assessed by ELISA (FIG. 12D).
(§4) To further assess the impact of linkage on efficacy and tolerability in vivo, select compositions of the Compound listed in Table 9 were evaluated in tumor-bearing mice (FIG. 12). The study design is shown in (FIG. 12A). […] Tumors were allowed to grow until all mice in the study had palpable tumors. On day 11, mice were treated with a single intratumoral (IT) injection of 7 nmol of STINGa (diABZI) as either Compound 56, Compound 94, Compound 95, Compound 96 or Compound 97 in PBS. As a control, a group of mice was treated with the formulation vehicle (7% DMSO in PBS). Tumors were measured biweekly to track tumor growth after treatment. Tolerability was assessed by measuring the amount of Interferon-gamma-induced protein 10 (IP-10) in the serum of animals 4 hours after intratumoral injection.

MC38 tumors = test: MC38 tumor model, single intratumoral injection of 7 nmol STINGa (diABZI); format: in vivo, C57BL/6 mice; conditions: 7 nmol STINGa IT day 11, versus vehicle / untreated
Procedure: as §3, §4

Compound	stability in mouse plasma (mouse plasma enzymes)	stability / cleavage in the presence of cathepsin B (human cathepsin B)	Rh (nm) at pH 7.4 [2]	further results
CCC(NC(=O)[C@@H](NC(=O)[C@@H]1CCCN1C(=O)[C@H](CO)NC(=O)CCNC(C)=O)C(C)C)C(=O)Nc1ccc2c(C)cc(=O)oc2c1 (some centres unmarked) [AI, Ac-A′SPVB-AMC] (HELM PEPTIDE1{[ac].[bAla].S.P.V.[CCC(N[*:1])C(=O)[*:2]].[Cc1cc(=O)oc2cc(N[*:1])ccc12]}$$$$V2.0)	metabolized quickly	metabolized quickly		
PAMAM-g-poly[(HPMA-co-Ma-b-Ala-2BXy)-b-HPMA]-Pg [Compound 78]			12.9 nm	Turbidity at pH 7.4 [1]: 0.041
N3-p[(HPMA)-co-(MA-b-Ala-Hz-HA-diABZI)]-Pg [Compound 94]			10.0 nm	survival (CT26 tumors): improved; tumor control / tumor growth (CT26 tumors): improved tumor control; serum IP-10 level compared to free STINGa [3]: similar; tumor control (MC38 tumors): improved tumor control
CCC(NC(=O)[C@@H](NC(=O)[C@H](CCCCNC(C)=O)NC(=O)[C@H](CO)NC(=O)CCNC(C)=O)C(C)C)C(=O)Nc1ccc2c(C)cc(=O)oc2c1 (some centres unmarked) [Compound AJ, Ac-A′SK(Ac) VB-AMC] (HELM PEPTIDE1{[ac].[bAla].S.K.V.[CCC(N[*:1])C(=O)[*:2]].[Cc1cc(=O)oc2cc(N[*:1])ccc12]}|PEPTIDE2{[ac]}$PEPTIDE1,PEPTIDE2,4:R3-1:R2$$$V2.0)	relatively stable	relatively stable		
N3-p[(HPMA)-co-(MA-b-Ala-VZ-PAB-diABZI)]-Pg [Compound 96]			26.9 nm	serum IP-10 level compared to free STINGa [3]: lower; tumor control (MC38 tumors): improved tumor control
N3-poly[(HPMA-co-Ma-b-Ala-2BXy)-b-(HPMA-co-Ma-propyl-NH2)]-Pg [Compound 68]			6.5 nm	Rh (nm) at pH 6.5 [2]: 5.6 nm
PAMAM-g-poly[(HPMA-co-Ma-b-Ala-2BXy)-b-(HPMA-co-Ma-propyl-NH2]-Pg [Compound 80]			12.4 nm	Turbidity at pH 7.4 [1]: 0.043
N3-poly(HPMA-co-Ma-b-Ala-diABZI)-Pg [Compound 56]			(aggregate)	survival (CT26 tumors): comparable to the mice that received the vehicle; tumor control / tumor growth (CT26 tumors): comparable to the mice that received the vehicle; tumor control (MC38 tumors): not
N3-poly[(HPMA-co-Ma-b-Ala-2BXy)-b-HPMA]-Pg [Compound 62]			6.6 nm	Turbidity at pH 6.5 [1]: 0.039; Turbidity at pH 7.4 [1]: 0.039; Rh (nm) at pH 6.5 [2]: 6.9 nm
CCCC[C@H](NC(=O)[C@@H](NC(=O)[C@@H]1CCCN1C(=O)[C@H](CO)NC(=O)CCNC(C)=O)C(C)C)C(=O)Nc1ccc2c(C)cc(=O)oc2c1 [AN, Ac-A′SPVnL-AMC] (HELM PEPTIDE1{[ac].[bAla].S.P.V.[Nle].[Cc1cc(=O)oc2cc(N[*:1])ccc12]}$$$$V2.0)	metabolized quickly	metabolized quickly		
N3-p[(HPMA)-co-(MA-b-Ala-cHz-HA-diABZI)]-Pg [Compound 95]			7.3 nm	serum IP-10 level compared to free STINGa [3]: lower; tumor control (MC38 tumors): improved tumor control
CCCCC(NC(=O)[C@@H](NC(=O)CCNC(C)=O)C(C)C)C(=O)Nc1ccc2c(C)cc(=O)oc2c1 (some centres unmarked) [AM, Ac-A′VnL-AMC] (HELM PEPTIDE1{[ac].[bAla].V.[CCCCC(N[*:1])C(=O)[*:2]].[Cc1cc(=O)oc2cc(N[*:1])ccc12]}$$$$V2.0)	metabolized quickly	metabolized quickly		
CCC(NC(=O)[C@H](CO)NC(=O)[C@H](CCCCNC(C)=O)NC(=O)[C@H](CO)NC(=O)CCNC(C)=O)C(=O)Nc1ccc2c(C)cc(=O)oc2c1 (some centres unmarked) [Compound AK, Ac-A′SK(Ac) SB-AMC] (HELM PEPTIDE1{[ac].[bAla].S.K.S.[CCC(N[*:1])C(=O)[*:2]].[Cc1cc(=O)oc2cc(N[*:1])ccc12]}|PEPTIDE2{[ac]}$PEPTIDE1,PEPTIDE2,4:R3-1:R2$$$V2.0)	significant stability	readily cleaved		
CC[C@H](NC(=O)[C@@H](NC(=O)CCNC(C)=O)C(C)C)C(=O)Nc1ccc2c(C)cc(=O)oc2c1 [Compound AH, Ac-A′VB-AMC] (HELM PEPTIDE1{[ac].[bAla].V.[Abu].[Cc1cc(=O)oc2cc(N[*:1])ccc12]}$$$$V2.0)	metabolized quickly	metabolized quickly		
CCCCC(NC(=O)[C@H](CO)NC(=O)[C@H](CCCCN)NC(=O)[C@H](CO)NC(=O)CCNC(C)=O)C(=O)Nc1ccc2c(C)cc(=O)oc2c1 (some centres unmarked) [AP, Ac-A′SKSnL-AMC] (HELM PEPTIDE1{[ac].[bAla].S.K.S.[CCCCC(N[*:1])C(=O)[*:2]].[Cc1cc(=O)oc2cc(N[*:1])ccc12]}$$$$V2.0)	significant stability	readily cleaved		
CCC(NC(=O)[C@H](CO)NC(=O)[C@H](CCCCN)NC(=O)[C@H](CO)NC(=O)CCNC(C)=O)C(=O)Nc1ccc2c(C)cc(=O)oc2c1 (some centres unmarked) [AL, Ac-A′SKSB-AMC] (HELM PEPTIDE1{[ac].[bAla].S.K.S.[CCC(N[*:1])C(=O)[*:2]].[Cc1cc(=O)oc2cc(N[*:1])ccc12]}$$$$V2.0)	significant stability	readily cleaved		
CCCC[C@H](NC(=O)[C@H](CO)NC(=O)[C@H](CCCCNC(C)=O)NC(=O)[C@H](CO)NC(=O)CCNC(C)=O)C(=O)Nc1ccc2c(C)cc(=O)oc2c1 [AO, Ac-A′SK(Ac) SnL-AMC] (HELM PEPTIDE1{[ac].[bAla].S.K.S.[Nle].[Cc1cc(=O)oc2cc(N[*:1])ccc12]}|PEPTIDE2{[ac]}$PEPTIDE1,PEPTIDE2,4:R3-1:R2$$$V2.0)	significant stability	readily cleaved		
N3-p[(HPMA)-co-(MA-b-Ala-PEG4-VZ-PAB-diABZI)]-Pg [Compound 97]			7.6 nm	serum IP-10 level compared to free STINGa [3]: lower; tumor control (MC38 tumors): improved tumor control
N3-poly(HPMA-co-Ma-b-Ala-2BXy-co-Ma-b-Ala-COOH)-Pg [Compound 48]				Turbidity at pH 6.5 [1]: Aggregate; Turbidity at pH 7.4 [1]: 0.043; Rh (nm) at pH 6.5 [2]: 48.0 nm
N3-poly(HPMA-co-Ma-b-Ala-2BXy-co-Ma-b-Ala-dimethylethylenediamine)-Pg [Compound 52]				Rh (nm) at pH 6.5 [2]: 4.1 nm
